Entries after “also recorded” stand apart in the source; their conditions may differ.

For data set [1], the system named is recurrent or metastatic cervical cancer, tumors express PD-L1 (CPS≥1). The settings on record: single agent, disease progression on or after chemotherapy; cited from earlier work.
Data set [2] relates to persistent, recurrent, or metastatic cervical cancer, tumors express PD-L1 (CPS≥1). Particulars: in combination with chemotherapy, with or without bevacizumab; cited from earlier work.
Data set [3] in a line: Rat toxicology study, control mRNA in DV-140-F2, intramuscular. It counts as in vivo, Sprague-Dawley rats. Particulars: 4 doses in 2 weeks. The protocol:
Briefly, Sprague-Dawley rats (n=8) were treated with a control mRNA formulated in DV-140-F2 at 0.03 or 0.3 mg/kg or PBS vehicle. Injections were done 4 times over the course of 13 days and were administered intramuscularly into the hind limb. Whole blood was taken for hematology, and serum taken for clinical chemistry and cytokine analysis at 6 hours post the first dose and final dose, and 2 weeks post the final dose. Additionally, 2 of the animals were sacrificed at 6 hours post the final dose and 2 weeks post final dose and a gross necropsy was performed. Tissue samples were retained and histopathology run on select organs.

For a further data set, the target named is T1, HVEM (Homo sapiens, UniProt Q92956).
T1 construct: host or cells: HVEM reporter cell line (not further described)
T1 sequence (Q92956 39-283): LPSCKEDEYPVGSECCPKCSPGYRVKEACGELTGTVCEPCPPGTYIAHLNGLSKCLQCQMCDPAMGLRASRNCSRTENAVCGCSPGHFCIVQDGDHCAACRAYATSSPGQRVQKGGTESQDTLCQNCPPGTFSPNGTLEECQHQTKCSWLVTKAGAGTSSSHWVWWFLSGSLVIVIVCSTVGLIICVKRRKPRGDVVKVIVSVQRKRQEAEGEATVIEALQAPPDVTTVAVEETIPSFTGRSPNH
As to the kind of experiment: HVEM activation by LIGHT, HVEM reporter cell line. In kind it is cell-based. The settings on record: FIGS. 1A, 1B, 12. From the text: FIG. 12 illustrates pre-blocking of soluble LIGHT in HVEM co-HEK transfected cells.
FIGS. 13A-13C are a comparison of HVEM activation with supernatant (blue) or cells (orange) for soluble LIGHT or membrane-stabilized LIGHT.

In a further data set the test system is CD3+ T cells. As to the kind of experiment: T cell proliferation in co-culture with HEK cells transfected with LIGHT variants. In kind it is cell-based, human. Particulars: vs soluble (Wt) LIGHT, FIGS. 9A, 9B. On the procedure: LIGHT variants were formulated in MessengerMax mRNA Transfection Reagent. Human embryonic kidney (HEK) cells were transfected with the LIGHT variant constructs for cell surface expression of LIGHT. CellTrace Violet (Thermo Fischer Scientific) was used to label CD3+ T cells from the resulting peripheral blood mononuclear cells (PBMC). 100 ng/mL of soluble CD3 Antibody was added to the resulting labeled CD3+ T cells. The T cell proliferation and interferon-gamma (IFN-7) secretion was evaluated about 5 days of co-culture.

For the next data set, the system named is primary human T cell. Kind of data set: Human T cell proliferation in response to ENG or WT hLIGHT mRNA with hIL-12 mRNA. In kind it is cell-based. Particulars: HEK293 transfected with hIL-12 mRNA plus LIGHT mRNA, 1:5 with T cells, anti-CD3 30 or 100 ng/mL, 4 days; relative to IL-12 and WT hLIGHT. The protocol:
This study was designed to compare the ability of ENG and WT hLIGHT mRNAs in combination with hIL-12 mRNA to stimulate primary human T cell proliferation. Human T cells were isolated from PBMCs from 1 healthy donor and stained with CellTrace Violet. HEK293 cells were transfected with hIL-12 mRNA (RNA-683) and WT hLIGHT (RNA-786) or ENG hLIGHT (RNA-1359) mRNA formulated in Lipofectamine MessengerMAX (0.5 ng each mRNA per 1000 cells). Control cells were transfected with noncoding mRNA control in the same way. Transfected HEK293 cells were cocultured with the T cells in a 1:5 ratio in the presence of 30 ng/mL or 100 ng/mL anti-CD3 antibody to mimic antigen specific TCR engagement for 4 days at 37° C., 5% CO2. CD8+ T cell proliferation was assessed by flow cytometry and the proliferation index was calculated. […] The results are shown in FIG. 10A, where ENG=engineered; HEK=human embryonic kidney; IL-12=interleukin-12; PBMC=peripheral blood mononuclear cell; WT=wildtype. The data in FIG. 10A represent mean±standard deviation (n=4). Statistical analysis was performed by unpaired student's t-test (P<0.05).

The subject of a further data set is transfected cells. Kind of data set: Surface expression of soluble or membrane-stabilized LIGHT by flow cytometry using HVEM binding. Particulars: compared to WT LIGHT mRNA. In kind it is cell-based. The text has this: FIGS. 14A and 14B depict the assessment of surface expression of soluble LIGHT or membrane-stabilized LIGHT by flow cytometry using HVEM binding.
In general terms: In flow cytometry, cells or beads pass a laser one at a time.

[4] abbreviates: High dose in rat, 100 μg RNA IM.
Where [5] appears, read: Therapeutic dose scaled for rat, 30 μg RNA IM.

In the case of pembrolizumab [KEYTRUDA], the objective response result in data set [1] is given as “around 14%”. For the same molecule, the overall survival result in data set [2] was “improvements in overall survival”.

Consider `CCCCCCCCCCN(CC(N)=O)C(=O)CN(CCCCCCCCCC)C(=O)CN(CCCCCCCCCC)C(=O)CN(CCCCCCCCCC)C(=O)CNCCO` [Compound 140, N-(2-amino-2-oxoethyl)-N-decyl-2-(N-decyl-2-(N-decyl-2-(N-decyl-2-((2-hydroxyethyl)amino)acetamido)acetamido)acetamido)acetamide], for which, in data set [3] (setting [4]), the Gross organ pathology result was “None observed” and the “Injection site reactions or other clinical observations” value was “None observed”. Moreover, in data set [3] (setting [5]), the Gross organ pathology entry is “None observed” and the “Injection site reactions or other clinical observations” value is given as “None observed”.

B1: soluble LIGHT: Wild-type soluble human LIGHT (SEQ ID NO: 1) (protein)
chain: MEESVVRPSVFVVDGQTDIPFTRLGRSHRRQSCSVARVGLGLLLLLMGAGLAVQGWFLLQLHWRLGEMVTRLPDGPAGSWEQLIQERRSHEVNPAAHLTGANSSLTGSGGPLLWETQLGLAFLRGLSYHDGALVVTKAGYYYIYSKVQLGGVGCPLGLASTITHGLYKRTPRYPEELELLVSQQSPCGRATSSSRVWWDSSFLGGVVHLEAGEEVVVRVLDERLVRLRDGTRSYFGAFMV
modifications: Human Wild Type LIGHT (786) aa
Turning to B1, the “effect of soluble LIGHT on HVEM binding and signaling by membrane-stabilized LIGHT” value with HVEM is “decreases the ability of membrane-stabilized LIGHT to activate HVEM; also recorded: competes for HVEM binding and reduces signaling by membrane-stabilized LIGHT”.

B2: ENG hLIGHT: mRNA SEQ ID NO: 18 encoding human LIGHT with amino acids #66-92 replaced by 10 amino acid linker (SEQ ID NO: 17) (nucleic acid)
chain: AGGCAUAGAAGUCGAGACACAGCCACUAAGUAAGCCACCAUGGAGGAGAGCGUGGUGCGGCCUAGCGUGUUCGUGGUCGACGGCCAGACCGACAUCCCCUUCACCAGACUGGGAAGAAGCCACAGAAGGCAGUCUUGCUCCGUGGCCAGAGUGGGCCUGGGCCUGCUCCUGCUGCUGAUGGGCGCUGGCCUGGCCGUGCAAGGCUGGUUCCUGCUGCAGCUGCACUGGCGGCUGGGCAGCAGCGCCUCUACCGAUAAGACCCACACCGUGAACCCUGCCGCCCACCUGACCGGCGCCAACAGCUCUCUGACCGGAUCUGGCGGACCUCUGCUGUGGGAGACACAGCUGGGCCUUGCUUUUCUGCGGGGCCUGAGCUACCACGACGGCGCUCUGGUGGUUACAAAGGCCGGCUACUACUACAUCUACAGCAAGGUGCAGCUGGGAGGCGUGGGUUGUCCACUGGGACUGGCCAGCACAAUCACACACGGCCUUUAUAAGCGGACCCCUAGAUACCCCGAGGAACUGGAACUGCUGGUCUCCCAGCAGAGCCCUUGCGGCAGAGCCACAAGCAGCAGCAGAGUGUGGUGGGACAGCUCAUUCCUGGGCGGCGUGGUGCAUCUGGAAGCCGGCGAGAAAGUGGUGGUCAGAGUGCUGGACGAGAGACUGGUGCGGCUGAGAGAUGGGACCCGCUCCUACUUCGGCGCCUUUAUGGUGUGAUAAGCGCCGCCUCCGGGACAGUGCACCCAGGCUGCGGCCCCUCCCCCGUCCUGGAGGUUCCCCAGCCCCACUUACCGCUUAAUGCGCCAAUAAACCAAUGAACGAAGCAAAAAAAAAAAAAAAAAAAAAAAAAAAAAAAAAAAAAAAAAAAAAAAAAAAAAAAAAAAAAAAAAAAAAAAAAAAAAAAAAAAAAAAAAAAAAAAAAAAAAAAAAAAAAAAAAAAAAAAAAAAAAAAAAAAAAAAAAAAAAAAAAAAAAAAAAAAAAAAAAAAAAAAAA
modifications: LIGHT ICD TM 1-66 RLG … LIGHT 92-240 1359, aka 1495 nt
For the molecule B2, the T-cell proliferation result with CD3+ T cells (listed as 1359) was “increase of T-cell proliferation”; in the data set on CD3+ T cells (listed as ENG LIGHT mRNA), “increased T cell proliferation”. In addition, the “CD8+ T cell proliferation and survival” value with primary human T cell was “increased CD8+ T cell proliferation and survival”. For the same molecule, in the data set with transfected cells, the “surface expression and bioactivity on transfected cells” value was “higher surface expression and bioactivity”.

(Values after patent publication US12102675B2, “MRNA therapeutic compositions” (Nutcracker Therapeutics, Inc., priority 2022, dated 2024).)
